In PubChem BioAssay AID624452 (Sanford-Burnham Center for Chemical Genomics, 2012):

Test system: human liver microsomes, compound remaining, LC-MS
Test: human microsomal compound turnover – biochemical, with and without NADPH, LC-MS, set 2, ADME assay (AID 624452);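 note: compound left measured after 60 min microsomal incubation at 37 °C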
Conditions: at 1 µM; for percent remaining without NADPH: measured here: stability without NADPH control

With O=C(CSc1cccc2cccnc12)N1CCCC1 the percent remaining with NADPH was 47.2% and the percent remaining without NADPH was 78.5%.

For O=C(c1ccccn1)N(Cc1cccs1)C1(C(=O)NC2CCCCC2)CCCCC1, the percent remaining with NADPH was 0.01% and the percent remaining without NADPH was 70.6%.

Molecule Cc1ccc(N2CCN(S(=O)(=O)N3CCCCC3)CC2)c(C)c1 has a percent remaining with NADPH of 0.03% and a percent remaining without NADPH of 73.8%.

Molecule COc1ccc(CNCc2cccc3ccccc23)cc1 has a percent remaining with NADPH of 0.21% and a percent remaining without NADPH of 70.7%.

Cc1cc(-c2nnc3n2CCCCC3)c(C)n1-c1ccccc1 gave a percent remaining with NADPH of 25.2% and a percent remaining without NADPH of 74.8%.

COc1ccc(OC)c(S(=O)(=O)Nc2cnc3ccccc3c2)c1 showed a percent remaining with NADPH of 25.9% and a percent remaining without NADPH of 71.5%.

Cc1cc2c(s1)c1cnn(Cc3ccccc3F)c(=O)c1n2C showed a percent remaining with NADPH of 0.06% and a percent remaining without NADPH of 64.4%.

Work on Cc1ccc(C)c(NS(=O)(=O)c2cc(C(=O)Nc3ccccc3-c3ccccc3)ccc2Cl)c1 yielded a percent remaining with NADPH of 2.07% and a percent remaining without NADPH of 75.9%.

Cc1ccnc(NC(=O)CCCOc2cc(=O)n(C)c3ccccc23)c1 gave a percent remaining with NADPH of 0.99% and a percent remaining without NADPH of 73.4%.

In the case of CC1CCCN(C(C(=O)Nc2ccc3c(c2)OCCO3)c2ccccc2)C1 (configuration not stated), the percent remaining with NADPH was 4.43% and the percent remaining without NADPH was 79.7%.

For COc1ccc(S(=O)(=O)N2CCN(S(=O)(=O)c3ccc4c(c3)OCCO4)CC2)cc1, the percent remaining with NADPH was 0.64% and the percent remaining without NADPH was 55.8%.

For O=c1oc2c(O)c(O)cc3c(=O)oc4c(O)c(O)cc1c4c23, the percent remaining with NADPH was 73.1% and the percent remaining without NADPH was 93.1%.

In the case of Cn1nnnc1Sc1ncnc2scc(-c3ccccc3)c12, the percent remaining with NADPH was 28.1% and the percent remaining without NADPH was 67.5%.

Molecule Cc1ccc(C(=O)n2c3ccccc3c3ccccc32)cc1 has a percent remaining with NADPH of 24% and a percent remaining without NADPH of 48.7%.

Cc1ccc(S(=O)(=O)NCc2ccc(C(=O)NCCN(Cc3ccccc3)C(C)C)cc2)cc1 showed a percent remaining with NADPH of 0.01% and a percent remaining without NADPH of 80.3%.

N#Cc1ccccc1CSc1nc2ncc(Br)cc2[nH]1 was tested, and the percent remaining with NADPH was 29.7% and the percent remaining without NADPH was 79.3%.

CCOc1ccc(-c2nc(-c3ccncc3)no2)cc1OCC was tested, and the percent remaining with NADPH was 25.1% and the percent remaining without NADPH was 70.3%.

COc1ccc(Sc2ccc(NC(=O)c3ccccc3Cl)cc2C#N)cc1 was tested, and the percent remaining with NADPH was 27.3% and the percent remaining without NADPH was 64.4%.

With COc1ccc(C2CC(c3ccccc3)=NN2c2ccc(S(N)(=O)=O)cc2)cc1 (configuration not stated) the percent remaining with NADPH was 59.6% and the percent remaining without NADPH was 70%.

Work on Cn1cnc([N+](=O)[O-])c1Sc1ncnc2nc[nH]c12 yielded a percent remaining with NADPH of 66.6% and a percent remaining without NADPH of 66.4%.

Molecule CCCC(=O)Nc1cccc(NC(=O)c2ccccc2Br)c1 has a percent remaining with NADPH of 46% and a percent remaining without NADPH of 71.2%.

With CC(=O)c1ccc(N2CCN(S(=O)(=O)c3ccc4c(c3)CC(=O)N4)CC2)cc1 the percent remaining with NADPH was 49% and the percent remaining without NADPH was 69.8%.

C=CCn1c(SCC(=O)c2ccc(O)c(O)c2)nnc1-c1ccccc1OC showed a percent remaining with NADPH of 30.6% and a percent remaining without NADPH of 65%.

Molecule O=[N+]([O-])c1ccc(CN2CCOCCOCCN(Cc3ccc([N+](=O)[O-])cc3)CCOCC2)cc1 has a percent remaining with NADPH of 0.31% and a percent remaining without NADPH of 72.8%.

For CN(C)c1oc(-c2ccc(OCc3ccc(Cl)cc3)cc2)nc1C#N, the percent remaining with NADPH was 35.5% and the percent remaining without NADPH was 67.2%.

Cc1cc(C)n(-c2nc(NCCCO)c3c4c(sc3n2)CCCC4)n1 gave a percent remaining with NADPH of 0.45% and a percent remaining without NADPH of 74%.

Work on NC(=O)C1CCN(c2nc(-c3ccc(Br)cc3)cs2)CC1 yielded a percent remaining with NADPH of 56.9% and a percent remaining without NADPH of 62%.

Cc1nc(SCc2nc3ccccc3[nH]2)c2oc3ccccc3c2n1 gave a percent remaining with NADPH of 0.22% and a percent remaining without NADPH of 70.5%.

For CCc1nnc(NC(=O)c2ccc(NS(=O)(=O)c3ccccc3)cc2)s1, the percent remaining with NADPH was 69.2% and the percent remaining without NADPH was 76.8%.

Molecule CCOC(=O)C(C)Oc1cccc2c(=O)n(CC(=O)Nc3ccc4c(c3)OCCO4)ccc12 (configuration not stated) has a percent remaining with NADPH of 68.7% and a percent remaining without NADPH of 75.6%.

In the case of CCCN(CCC)CCNC(=O)C1CCN(Cc2nc(-c3ccc(Cl)cc3)oc2C)CC1, the percent remaining with NADPH was 13.5% and the percent remaining without NADPH was 75.6%.

CCCOc1ccc(-c2nc(OC)c3ccccc3n2)cc1 gave a percent remaining with NADPH of 48.3% and a percent remaining without NADPH of 81.5%.

O=C(COc1ccccc1Br)NCCc1nc2ccccc2[nH]1 showed a percent remaining with NADPH of 0.04% and a percent remaining without NADPH of 79.6%.

O=C(O)c1ccc(N2C(=O)/C(=C/c3ccc(-c4ccc([N+](=O)[O-])cc4)o3)C=C2c2ccccc2)cc1 was tested, and the percent remaining with NADPH was 67.9% and the percent remaining without NADPH was 74.3%.

COc1ccc(S(=O)(=O)n2nc(OC(=O)c3ccccc3)cc2N)cc1 was tested, and the percent remaining with NADPH was 52.9% and the percent remaining without NADPH was 65.4%.

O=C(O)CCC(NS(=O)(=O)c1ccc(-c2ccccc2)cc1)C(=O)O (configuration not stated) was tested, and the percent remaining with NADPH was 75.8% and the percent remaining without NADPH was 74.2%.

For COc1ccc(CSc2nc(C)cc(=O)[nH]2)cc1, the percent remaining with NADPH was 41.4% and the percent remaining without NADPH was 68.6%.

Work on O=C1CCCC2=C1C1(CCCC1)N=C(Nc1nc3ccccc3o1)N2 yielded a percent remaining with NADPH of 11.2% and a percent remaining without NADPH of 78.1%.

Cc1ccc(S(=O)(=O)C(c2ccccc2)c2c(C)noc2C)cc1 (configuration not stated) showed a percent remaining with NADPH of 0.08% and a percent remaining without NADPH of 69.4%.

Work on Oc1cc(O)cc(/C=C/c2ccc(O)c(O)c2)c1 yielded a percent remaining with NADPH of 45.9% and a percent remaining without NADPH of 87.6%.

Molecule CC(C)C(=O)NC(c1ccco1)c1ccc2cccnc2c1O (configuration not stated) has a percent remaining with NADPH of 49.2% and a percent remaining without NADPH of 76.4%.

O=c1[nH]c2c(s1)C(c1cccnc1)C1C3CCC(C3)C1S2 (configuration not stated) was tested, and the percent remaining with NADPH was 7.76% and the percent remaining without NADPH was 71.9%.

With COc1cccc(-c2nc(-c3ccc(NC(=O)Cc4ccccc4OC)cc3)no2)c1 the percent remaining with NADPH was 11.1% and the percent remaining without NADPH was 69.1%.

For CCN1CCN(c2nc3ccccc3nc2C(C#N)C(=O)OC2CCCCC2)CC1 (configuration not stated), the percent remaining with NADPH was 14.2% and the percent remaining without NADPH was 80.8%.

In the case of c1ccc2c(Nc3nnc(-c4ccncc4)s3)cccc2c1, the percent remaining with NADPH was 8.76% and the percent remaining without NADPH was 72.1%.

For CCOc1ccc(NC(=S)N2CCC(C(O)(c3ccccc3)c3ccccc3)CC2)cc1, the percent remaining with NADPH was 22.7% and the percent remaining without NADPH was 62%.

CCCn1ncc(CN2CCCC(C(=O)c3cccc(OC(C)C)c3)C2)c1C (configuration not stated) showed a percent remaining with NADPH of 1.55% and a percent remaining without NADPH of 79.4%.

Cc1cccc(-n2cnc3cc(C(=O)N4CCCCC4)ccc32)c1 gave a percent remaining with NADPH of 37.9% and a percent remaining without NADPH of 70%.

COc1ccccc1N(/N=C1\Sc2ccccc2C1=O)C(C)=O showed a percent remaining with NADPH of 0.32% and a percent remaining without NADPH of 68.5%.

For Cc1cc(C)nc(-n2nc(C)c(Sc3ccc(F)cc3)c2N)n1, the percent remaining with NADPH was 13.4% and the percent remaining without NADPH was 79.4%.

COC(=O)c1ccccc1NC(=O)c1ccc(F)cc1 showed a percent remaining with NADPH of 53.7% and a percent remaining without NADPH of 100%.

In the case of O=C(COC(=O)C12CC3CC(CC(C3)C1)C2)NCc1ccco1, the percent remaining with NADPH was 84.8% and the percent remaining without NADPH was 100%.

Work on Cc1ccc(NC(=O)CCC(=O)N/N=C/c2ccc([N+](=O)[O-])o2)cc1C yielded a percent remaining with NADPH of 37.5% and a percent remaining without NADPH of 72.6%.

In the case of O=C(O)c1ccccc1OCc1ccccc1Br, the percent remaining with NADPH was 67.3% and the percent remaining without NADPH was 70%.

Cc1ccc(-n2c(N)c(C#N)c(-c3ccccc3)c(C#N)c2=O)cc1 gave a percent remaining with NADPH of 64% and a percent remaining without NADPH of 78.9%.

c1ccc(CC2CCN(c3ncnc4sccc34)CC2)cc1 showed a percent remaining with NADPH of 9.66% and a percent remaining without NADPH of 54.9%.

With O=C1NCCCc2c1oc1ccc(O)cc21 the percent remaining with NADPH was 62.1% and the percent remaining without NADPH was 63%.

Molecule O=C(CCNS(=O)(=O)c1cccc2nsnc12)N1CCN(c2ccccn2)CC1 has a percent remaining with NADPH of 3.36% and a percent remaining without NADPH of 71.8%.

In the case of Brc1ccc2c(c1)CN1CCCC1=N2, the percent remaining with NADPH was 56.4% and the percent remaining without NADPH was 77.8%.

Cc1ccc(S(=O)(=O)n2c(N)nc3ccccc32)cc1 was tested, and the percent remaining with NADPH was 21% and the percent remaining without NADPH was 79.3%.

In the case of COc1ccc(N(C(=O)CCl)C(C(=O)NCCc2ccccc2)c2cccs2)cc1Cl (configuration not stated), the percent remaining with NADPH was 1.54% and the percent remaining without NADPH was 39.7%.

In the case of C/C=C/Cn1c(SCCCc2ccccc2)nc2c1c(=O)[nH]c(=O)n2C, the percent remaining with NADPH was 1.64% and the percent remaining without NADPH was 69.3%.

CCc1oc2ccccc2c1C(=O)c1cc(Br)c(O)c(Br)c1 gave a percent remaining with NADPH of 20.3% and a percent remaining without NADPH of 75.6%.

Molecule Cc1cc(C(=O)CN2C(=O)CCC2=O)c(C)n1Cc1ccccc1 has a percent remaining with NADPH of 34.5% and a percent remaining without NADPH of 72.6%.

CCCN1CNc2c(c(=O)[nH]c(=S)n2CCc2ccc(OC)c(OC)c2)C1 was tested, and the percent remaining with NADPH was 48.6% and the percent remaining without NADPH was 65%.

With CS(=O)(=O)c1ccc(C(=O)OCC(=O)NC23CC4CC(CC(C4)C2)C3)cc1[N+](=O)[O-] the percent remaining with NADPH was 5.75% and the percent remaining without NADPH was 81%.

COc1ccc(C2c3c(ncn(CCN4CCOCC4)c3=N)Oc3ccc4ccccc4c32)cc1OC (configuration not stated) gave a percent remaining with NADPH of 7.15% and a percent remaining without NADPH of 87.2%.

Molecule Cc1ccccc1N1CCN(c2ncnc3c2cnn3Cc2ccc(Cl)cc2)CC1 has a percent remaining with NADPH of 30.9% and a percent remaining without NADPH of 58%.

Molecule c1ccc(-c2nnc(N3CCOCC3)nc2-c2ccccc2)cc1 has a percent remaining with NADPH of 31.1% and a percent remaining without NADPH of 79.8%.

For O=S1(=O)Nc2c(ccc3cccnc23)-c2ccccc21, the percent remaining with NADPH was 64.4% and the percent remaining without NADPH was 68%.

Cc1ccc(NS(=O)(=O)c2ccc3c(c2)CCC(=O)N3)cc1C was tested, and the percent remaining with NADPH was 6.36% and the percent remaining without NADPH was 66.3%.

Brc1cc2c(cc1C1Nc3ccccc3C3C=CCC31)OCO2 (configuration not stated) was tested, and the percent remaining with NADPH was 28.7% and the percent remaining without NADPH was 65.5%.

In the case of CSc1nc(-c2ccc(C)cc2)nc(C(Cl)Cl)n1, the percent remaining with NADPH was 10.8% and the percent remaining without NADPH was 42.1%.

O=c1[nH]c(SCc2ccc(Cl)cc2)nc2c1CCC2 was tested, and the percent remaining with NADPH was 12.6% and the percent remaining without NADPH was 78.5%.

Molecule CN(C)C1=C(Cl)C(=O)N(c2ccc(Cl)c(Cl)c2)C1=O has a percent remaining with NADPH of 0.26% and a percent remaining without NADPH of 36.9%.

O=C1C2CC=CCC2C(=O)N1c1n[nH]c(-c2ccccc2)n1 (configuration not stated) gave a percent remaining with NADPH of 66.9% and a percent remaining without NADPH of 71%.
